Test results published in PubChem BioAssay (NCI).
Several values for one entry are separate records, joined by “and”; a condition that tells them apart may be missing. Identical values can stand only once.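 Briefly, cells in 96-well plates were exposed to five compound concentrations for 48 h, and endpoints were estimated by linear interpolation. GI50: concentration for 50% inhibition of growth. Definition used: TGI = concentration required for complete inhibition of growth.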

Assays:
Test in all cases: inhibition of tumour cell growth, NCI panel, 48 h
OVCAR-5 ovarian = system: OVCAR-5 ovarian
UACC-62 melanoma = system: UACC-62 melanoma
HCC-2998 colon = system: HCC-2998 colon
A498 renal = system: A498 renal
M14 melanoma = system: M14 melanoma
SK-MEL-5 melanoma = system: SK-MEL-5 melanoma
HCT-15 colon = system: HCT-15 colon
HOP-62 NSCLC = system: HOP-62 NSCLC
OVCAR-3 ovarian = system: OVCAR-3 ovarian
HL-60(TB) leukemia = system: HL-60(TB) leukemia

Compound | TGI (OVCAR-5 ovarian) [µM] | TGI (UACC-62 melanoma) | TGI (HCC-2998 colon) | TGI (A498 renal) [µM] | TGI (M14 melanoma) [µM] | TGI (SK-MEL-5 melanoma) [µM] | TGI (HCT-15 colon) [µM] | TGI (HOP-62 NSCLC) [µM] | TGI (OVCAR-3 ovarian) | TGI (HL-60(TB) leukemia) [µM] | GI50 (OVCAR-5 ovarian) | GI50 (UACC-62 melanoma) | GI50 (HCC-2998 colon) | GI50 (OVCAR-3 ovarian) | GI50 (A498 renal) [µM] | GI50 (SK-MEL-5 melanoma) [µM] | GI50 (HCT-15 colon) [µM] | GI50 (HL-60(TB) leukemia) [µM] | GI50 (HOP-62 NSCLC) [µM] | GI50 (M14 melanoma) [µM]
Cn1cnc([N+](=O)[O-])c1Sc1nc2cc(Cl)c(F)cc2[nH]1 | > 100 | 28.6 µM | 20.7 µM | 51 | 27.6 | 24 | 17.6 | > 100 | – | – | – | – | – | – | – | – | – | – | – | –
Cc1c2cc[nH]c(C(F)(F)F)c2cc2c1nc1ccccc12 | > 125 | > 125 µM | > 125 µM | > 113 | – | > 125 | > 125 | > 125 | > 125 µM | > 125 | – | – | – | – | – | – | – | – | – | –
O=C(Nc1cccc2ccccc12)Oc1ccccc1C1CCCCC1 | 32.1 | 30.5 µM | 34.3 µM | 31.5 | 32.4 | 28.8 | 33.9 | 33.1 | 39.5 µM | 64.2 | – | – | – | – | – | – | – | – | – | –
COC(=O)C(=O)C(C(=O)Nc1cccc(C)c1C)C1Sc2ccccc2NC1=O (configuration not stated) | > 25 | > 25 µM | > 25 µM | > 25 | > 25 | > 25 | > 25 | > 25 | > 25 µM | > 25 | – | – | – | – | – | – | – | – | – | –
FC(F)(F)c1ccc(-c2nc(-c3nc4cc(Cl)c(Cl)cc4[nH]3)c3ccccn23)cc1 | > 100 | > 100 µM | > 100 µM | 79.1 | – | > 100 | > 100 | 16.3 | > 100 µM | > 100 | > 100 µM | 15.6 µM | > 100 µM | 3.74 µM | 4.58 | 4.2 | 30.5 | > 100 | 3.04 | –
COc1cc2c(cc1OCCCN1CCN(CCCOc3cc4c(cc3OC)C(=O)N3CCC[C@H]3C=N4)CC1)C=CC(C)(C)O2 | 3.18 | 2.73 µM | 2.07 µM | 2.37 | 2.62 | 2.53 | – | 2.5 | 2.67 µM | 0.738 | 1.7 µM | 1.42 µM | 0.683 µM | 1.36 µM | 1.15 | 1.27 | – | 0.252 | 1.25 | 1.34
CCC1(O)CC(OC2CC(N(C)C)C(OC3CC4OC5CC(=O)C(C)OC5OC4C(C)O3)C(C)O2)c2c(cc3c(c2O)C(=O)c2c(O)ccc(O)c2C3=O)C1C(=O)OC (configuration not stated) | – | 0.0164 µM and 0.0136 µM | 0.0607 µM and 0.0199 µM and < 0.0465 µM | 0.016 | – | – | – | – | 0.0789 µM and 0.0232 µM and < 0.0174 µM | – | 0.00138 µM and 0.00225 µM and 0.00943 µM | 0.00479 µM and 0.00857 µM | 0.021 µM and 0.01 µM | 0.00656 µM and 0.00711 µM | 0.00459 | – | – | – | – | 0.0245
O=c1cnn(C/C=C\CO)c(=O)[nH]1 | > 100 | – | > 100 µM | > 100 | > 100 | > 100 | > 100 | > 100 | > 100 µM | > 100 | – | – | – | – | – | – | – | – | – | –
